Assay results taken from patent publication US11413278B2, “Compounds and methods for promoting stress resistance” (priority 2015, dated 2022).
pEC50: −log10 of the molar value. “And” between values parts separate entries of the source, which are not always exact repeats. Identical values can stand only once.

Columns and labels:
DNA = assay: Comet assay (DNA damage); assay type: cell-based; conditions: preliminary analysis
[1] = tested on: two breast cancer-derived tumor cell lines; assay: Viability of breast cancer-derived tumor cell lines; assay type: cell-based; conditions: 5 μM
NFKBIA = conditions: two screens; read-out: NFKBIA induction, EC50; cited from earlier work
SENP7 = target: T1, SENP7 (Homo sapiens, UniProt Q9BQF6); conditions: 2 screens; 5.0 μM or 12. μM; cited from earlier work
T1 sequence (Q9BQF6 1-1050): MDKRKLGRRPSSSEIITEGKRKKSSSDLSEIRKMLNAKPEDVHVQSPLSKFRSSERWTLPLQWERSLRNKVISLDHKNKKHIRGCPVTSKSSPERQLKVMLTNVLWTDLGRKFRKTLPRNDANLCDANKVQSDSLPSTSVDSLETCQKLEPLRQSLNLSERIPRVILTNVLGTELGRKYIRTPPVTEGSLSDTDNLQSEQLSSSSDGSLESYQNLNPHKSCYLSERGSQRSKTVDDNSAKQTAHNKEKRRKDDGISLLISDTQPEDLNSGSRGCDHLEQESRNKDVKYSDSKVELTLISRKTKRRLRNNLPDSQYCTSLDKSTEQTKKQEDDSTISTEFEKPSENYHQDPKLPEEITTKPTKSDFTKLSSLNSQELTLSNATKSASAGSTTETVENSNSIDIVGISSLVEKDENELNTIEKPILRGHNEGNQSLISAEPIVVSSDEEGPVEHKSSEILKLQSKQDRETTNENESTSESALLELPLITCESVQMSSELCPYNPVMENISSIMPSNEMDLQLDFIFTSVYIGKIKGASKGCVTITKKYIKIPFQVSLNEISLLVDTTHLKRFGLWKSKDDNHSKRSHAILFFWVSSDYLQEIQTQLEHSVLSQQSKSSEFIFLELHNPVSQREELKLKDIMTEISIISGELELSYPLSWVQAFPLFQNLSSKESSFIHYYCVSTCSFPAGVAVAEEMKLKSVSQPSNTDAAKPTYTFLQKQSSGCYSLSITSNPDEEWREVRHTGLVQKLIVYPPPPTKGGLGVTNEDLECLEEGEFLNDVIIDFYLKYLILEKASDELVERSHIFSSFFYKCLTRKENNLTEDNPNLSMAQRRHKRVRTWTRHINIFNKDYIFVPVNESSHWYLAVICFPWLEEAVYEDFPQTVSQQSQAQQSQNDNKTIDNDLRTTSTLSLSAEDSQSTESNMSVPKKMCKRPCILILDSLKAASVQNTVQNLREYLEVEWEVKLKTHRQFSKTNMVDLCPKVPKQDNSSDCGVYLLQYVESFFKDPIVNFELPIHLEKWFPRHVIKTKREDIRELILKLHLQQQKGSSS

SENP8 = target: T2, SENP8 (Homo sapiens, UniProt Q96LD8); conditions: Gr-1F: 3 screens, 10.0 μM to 12. μM; O13: 1 screen, 20. μM; cited from earlier work
T2 sequence (Q96LD8 1-212): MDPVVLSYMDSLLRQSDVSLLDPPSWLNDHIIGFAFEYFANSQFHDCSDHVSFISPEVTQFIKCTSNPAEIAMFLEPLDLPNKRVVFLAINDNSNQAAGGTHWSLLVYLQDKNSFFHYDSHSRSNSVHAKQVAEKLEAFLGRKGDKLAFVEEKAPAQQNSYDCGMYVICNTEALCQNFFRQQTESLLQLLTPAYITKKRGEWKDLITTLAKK

Structure (SMILES)	pEC50 (NFKBIA)	SENP8 inhibition (SENP8)	other results
O=C(NCc1cccnc1)/C(=C\c1cccc(Oc2ccccc2)c1)S(=O)(=O)c1ccccc1 [Gr-7A]			Fraction of damaged DNA with long comet tails (DNA): significantly increased the fraction of damaged DNA with long comet tails
[O-][n+]1onc2c3nsnc3c(Br)cc21 [O17]			Cell viability in two breast cancer-derived tumor cell lines [1]: significantly reduce cell viability
O=[N+]([O-])c1ccccc1S(=O)(=O)Nc1cccc2cccnc12 [Gr-3A]	4.96 and 4.92		
Cc1ccc(NC(=O)c2ccc([N+](=O)[O-])o2)cc1C [Gr-1F]		60%-80%	SENP7 inhibition (SENP7): ~90%
Nc1ccccc1S(=O)(=O)Nc1cccc2cccnc12 [Gr-3C]	5.07 and 4.96		
O=C(c1ccc([N+](=O)[O-])o1)N1CCc2ccccc21 [O13]		~50%	
